Laboratory results as given in patent US4293483A, “Derivatives of A-30912A nucleus” (priority 1980, dated 1981).
Read-outs that look alike come from different tables or passages of the source. Numbered stars: 1 amine (or outer) side, 2 acyl side, 3 side chain; on linkers, the order of the positions; unused ones are H or OH. Bridge positions count the residues as written; N and C are the ends. Square brackets hold non-standard residues; d marks the D form. Peptide text beside a SMILES is read from it. * marks the point of attachment. ξ: configuration not given here. Orn(4R-OH,5R-OH) = O=C([C@H](C[C@@H](O)[C@@H](O)N[*:3])N[*:1])[*:2]; hTyr(3S-OH,4S-OH) = N[C@H](C(=O)O)[C@H](O)[C@@H](O)c1ccc(O)cc1; Pro(3S-OH,4S-Me) = C[C@H]1CN[C@H](C(=O)O)[C@H]1O; 4Abz(2-Cl) = O=C(c1ccc(N[*:1])cc1Cl)[*:2]; X5 = O=C(c1cc(Cl)cc(N[*:1])c1Cl)[*:2]; X9 = COc1ccc(C(=O)[*:2])cc1N[*:1]; Hyp = O=C(O)[C@@H]1C[C@@H](O)CN1; X4 = Cc1cc(C(=O)[*:2])ccc1N[*:1]; X7 = Cc1ccc(C(=O)[*:2])cc1N[*:1]; X8 = O=C(c1ccc(N[*:1])cc1O)[*:2]; Lauroyl = CCCCCCCCCCCC(=O)*; Decanoyl = CCCCCCCCCC(=O)*; 3Abz = Nc1cccc(C(=O)O)c1; 4Abz = Nc1ccc(C(=O)O)cc1; Heptanoyl = CCCCCCC(=O)*; Octanoyl = CCCCCCCC(=O)*; ξF = NC(Cc1ccccc1)C(=O)O; Aun = NCCCCCCCCCCC(=O)O

How the values were obtained:
[1] = tested on: Saccharomyces pastorianus X-52; assay: Agar plate disc diffusion test, zone of inhibition; assay type: cell-based; details: Saccharomyces pastorianus, X52, 48 h, Saccharomyces pastorianus X-52; 1 mg/ml suspension in methanol, 7 mm disc; 24-48 hours at 25-37° C.; read-out: Size of Zone of Inhibition
Protocol: (§1) ^(a) Compounds were tested as suspension in methanol.
(§2) were tested at a concentration of 1 mg/ml by a dipping 7mm disc into the
(§3) suspension and placing it on the agar surface. Incubation: 24-48 hours at

[2] = mouse, in vivo, 416 mg/kg, 240 min
Protocol: In this test, mice are gavaged with a dose of 416 mg/kg of the test compound suspended in 33% PEG 400-water. At time intervals, blood samples are taken from the orbital sinus and are assayed for antibiotic activity as follows: A 7 mm. disc containing 20 μl of whole blood is placed on agar seeded with Aspergillus montevidensis A35137. After 40 hours incubation at 30° C. zones of inhibition from the blood samples are compared to a standard obtained from the test compound, and the amount of compound in the blood sample is calculated.

[3] = tested on: Trychophyton mentagrophytes #6; assay: Agar plate disc diffusion test, MIC per disc; assay type: cell-based; details: 0.01M sodium borate, pH 7.5, 24 hours at 30° C.
Protocol: (§4) In Table 5, activity is measured by the minimal inhibitory concentration (MIC) of the substance (μg/disc) required to inhibit growth of the test organism.
(§5) *Compounds were suspended in 0.01M sodium borate solution, pH 7.5.
(§6) compounds were tested at 20 μg/disc at top level and at twofold
(§7) dilutions until end points were reached.

Neurospora Crassa 846 = assay: Agar plate disc diffusion test, zone of inhibition; assay type: cell-based; details: Neurospora crassa, 7 mm disc
Protocol: as §1, §2, §3

Candida albicans A-26 [4] = assay: Therapeutic activity against Candida albicans A-26 infection in mice; assay type: in vivo; details: A26, sc
Protocol: The results of in vivo tests to evaluate the effectiveness of the compound of Examples 61-81, 86 and 88 against an infection caused by Candida albicans A-26 in mice are given in Table 7, where activity is measured by the ED50 value (the dose in mg/kg. required to cure 50% of the test animals). Where an ED50 value was not obtained, activity is indicated by the lowest dose at which a significant anti-fungal effect is observed. In this test, groups of male albino mice (specific pathogen free), weighing 18 to 20 grams, are infected intravenously with Candida albicans A-26. The animals are X-irradiated 24 hours prior to infection at about 50 roentgens per minute for 8 minutes (400 total dose) to reduce immune responses to the infecting organism. At 0, 4, and 24 hours post infection each group of mice is given graded doses subcutaneously of the test compound as a suspension in 33% polyethylene glycol-water. The day of death for each animal is recorded.
*Dosage Schedule: 40, 20, 15, and 10 mg/kg. Dosages given 0, 4, and 24
hours post injection as suspension of test compound in 30% PEGH2 O.
Number of mice receiving test compounds at each dosage level: 6 mice per
group. Number of mice in control (untreated) group: 10 mice per group.
**As measured by increase in survival time of treated animals versus
control, calculated by method of Reed V. Mueuch, American J. Hygiene, 493

Candida albicans A-26 [5] = assay: Agar plate disc diffusion test, MIC per disc; assay type: cell-based; details: 0.01M sodium borate, pH 7.5, 24 hours at 30° C.
Protocol: as §4, §5, §6, §7

[6] = tested on: Trichophyton mentagrophytes; assay: Agar plate disc diffusion test, zone of inhibition; assay type: cell-based; details: 7 mm disc
Protocol: as §1, §2, §3

Candida albicans A-26 [7] = assay: Agar plate disc diffusion test, zone of inhibition; assay type: cell-based; details: 7 mm disc; for Size of Zone of Inhibition: 1 mg/ml suspension in methanol, 24-48 hours at 25-37° C., no regrowth mark
Protocol: as §1, §2, §3

[8] = CRASSA846, Neurospora Crassa 846, 1 mg/ml, * measurable zone of inhibition with regrowth of organism around disc, read-out: Size of Zone of Inhibition (*)
[9] = subcutaneous at 0, 4 and 24 hours post infection, dose to cure 50% of test animals, by increase in survival time, read-out: ED50
[10] = subcutaneous at 0, 4 and 24 hours post infection, lowest dose with significant anti-fungal effect, read-out: Lowest Active Dose
[11] = 1 mg/ml, * measurable zone of inhibition with regrowth of organism around disc, read-out: Size of Zone of Inhibition (*)
[12] = read-out: Lowest Active Dose, subcutaneous at 0, 4 and 24 hours post infection, lowest dose with significant anti-fungal effect

Row | SMILES | zone of inhibition at 1000 µg/mL [1] | Blood Levels [2] | MIC [3] | zone of inhibition at 1000 µg/mL (Neurospora Crassa 846; [8]) | ED50 (Candida albicans A-26 [4]; [9]) | minimal effective dose (Candida albicans A-26 [4]; [10]) | MIC (Candida albicans A-26 [5]) | zone of inhibition at 1000 µg/mL [6, 11] | Size of Zone of Inhibition (Candida albicans A-26 [7]) | zone of inhibition at 1000 µg/mL (Neurospora Crassa 846; CRASSA846, 48 h, Neurospora Crassa 846, 1 mg/ml suspension in methanol, 24-48 hours at 25-37° C., no regrowth mark, read-out: Size of Zone of Inhibition) | ED50 (Candida albicans A-26 [4]) | minimal effective dose (Candida albicans A-26 [4]; [12]) | zone of inhibition at 1000 µg/mL ([6]; 48 h, 1 mg/ml suspension in methanol, 24-48 hours at 25-37° C., no regrowth mark, read-out: Size of Zone of Inhibition) | Size of Zone of Inhibition (*) (Candida albicans A-26 [7]; 1 mg/ml, * measurable zone of inhibition with regrowth of organism around disc)
1 | CCCCCCCCCCCC(=O)NC(Cc1ccccc1)C(=O)N[C@H]1C[C@@H](O)[C@@H](O)NC(=O)[C@@H]2[C@@H](O)[C@@H](C)CN2C(=O)[C@H]([C@@H](C)O)NC(=O)[C@H]([C@H](O)[C@@H](O)c2ccc(O)cc2)NC(=O)[C@@H]2C[C@@H](O)CN2C(=O)[C@H]([C@@H](C)O)NC1=O (stereo partly drawn) [Example 61] (Lauroyl-[ξF][Orn(4R-OH,5R-OH)]T[Hyp][hTyr(3S-OH,4S-OH)]T[Pro(3S-OH,4S-Me)]; lactam 2-C) | 18 mm | 0 ng/mL | < 0.039 μg/disc | 42 mm | > 40 mg/kg | > 40 mg/kg | 0.625 μg/disc | 55 mm | 25 mm |  |  |  |  | 
2 | CCCCCCCCCCCC(=O)Nc1cccc(C(=O)N[C@H]2C[C@@H](O)[C@@H](O)NC(=O)[C@@H]3[C@@H](O)[C@@H](C)CN3C(=O)[C@H]([C@@H](C)O)NC(=O)[C@H]([C@H](O)[C@@H](O)c3ccc(O)cc3)NC(=O)[C@@H]3C[C@@H](O)CN3C(=O)[C@H]([C@@H](C)O)NC2=O)c1 [Example 65] ({Lauroyl-3Abz}-[Orn(4R-OH,5R-OH)]T[Hyp][hTyr(3S-OH,4S-OH)]T[Pro(3S-OH,4S-Me)]; lactam 1-C) | 17 mm | 0 ng/mL | < 0.039 μg/disc |  | > 40 mg/kg | > 40 mg/kg | 5.0 μg/disc |  | 20 mm |  |  |  |  | 
3 | CCCCCCCCCCCC(=O)Nc1ccc(C(=O)N[C@H]2C[C@@H](O)[C@@H](O)NC(=O)[C@@H]3[C@@H](O)[C@@H](C)CN3C(=O)[C@H]([C@@H](C)O)NC(=O)[C@H]([C@H](O)[C@@H](O)c3ccc(O)cc3)NC(=O)[C@@H]3C[C@@H](O)CN3C(=O)[C@H]([C@@H](C)O)NC2=O)c(O)c1 [Example 66] (Lauroyl-[X8][Orn(4R-OH,5R-OH)]T[Hyp][hTyr(3S-OH,4S-OH)]T[Pro(3S-OH,4S-Me)]; lactam 2-C) | 18 mm | 0 ng/mL | < 0.039 μg/disc |  | > 40 mg/kg | 40 mg/kg | 1.25 μg/disc |  | 23 mm |  |  |  |  | 
4 | CCCCCCCCCCCC(=O)Nc1cc(C(=O)N[C@H]2C[C@@H](O)[C@@H](O)NC(=O)[C@@H]3[C@@H](O)[C@@H](C)CN3C(=O)[C@H]([C@@H](C)O)NC(=O)[C@H]([C@H](O)[C@@H](O)c3ccc(O)cc3)NC(=O)[C@@H]3C[C@@H](O)CN3C(=O)[C@H]([C@@H](C)O)NC2=O)ccc1C [Example 69] (Lauroyl-[X7][Orn(4R-OH,5R-OH)]T[Hyp][hTyr(3S-OH,4S-OH)]T[Pro(3S-OH,4S-Me)]; lactam 2-C) | 17 mm | 0 ng/mL | < 0.039 μg/disc | 30 mm | > 40 mg/kg | > 40 mg/kg | > 20 μg/disc |  | 16 mm |  |  |  |  | 
5 | CCCCCCCCCCCC(=O)Nc1ccc(C(=O)N[C@H]2C[C@@H](O)[C@@H](O)NC(=O)[C@@H]3[C@@H](O)[C@@H](C)CN3C(=O)[C@H]([C@@H](C)O)NC(=O)[C@H]([C@H](O)[C@@H](O)c3ccc(O)cc3)NC(=O)[C@@H]3C[C@@H](O)CN3C(=O)[C@H]([C@@H](C)O)NC2=O)cc1C [Example 70] (Lauroyl-[X4][Orn(4R-OH,5R-OH)]T[Hyp][hTyr(3S-OH,4S-OH)]T[Pro(3S-OH,4S-Me)]; lactam 2-C) | 19 mm | 0 ng/mL | < 0.039 μg/disc | 25 mm | > 40 mg/kg | > 40 mg/kg | 20 μg/disc | 45 mm | 26 mm |  |  |  |  | 
6 | CCCCCCCCCCCC(=O)Nc1cc(C(=O)N[C@H]2C[C@@H](O)[C@@H](O)NC(=O)[C@@H]3[C@@H](O)[C@@H](C)CN3C(=O)[C@H]([C@@H](C)O)NC(=O)[C@H]([C@H](O)[C@@H](O)c3ccc(O)cc3)NC(=O)[C@@H]3C[C@@H](O)CN3C(=O)[C@H]([C@@H](C)O)NC2=O)ccc1OC [Example 71] (Lauroyl-[X9][Orn(4R-OH,5R-OH)]T[Hyp][hTyr(3S-OH,4S-OH)]T[Pro(3S-OH,4S-Me)]; lactam 2-C) | 10 mm |  |  | 32 mm | > 40 mg/kg | > 40 mg/kg |  | 50 mm | 20 mm |  |  |  |  | 
7 | CCCCCCC(=O)NCCCCCCCCCCC(=O)N[C@H]1C[C@@H](O)[C@@H](O)NC(=O)[C@@H]2[C@@H](O)[C@@H](C)CN2C(=O)[C@H]([C@@H](C)O)NC(=O)[C@H]([C@H](O)[C@@H](O)c2ccc(O)cc2)NC(=O)[C@@H]2C[C@@H](O)CN2C(=O)[C@H]([C@@H](C)O)NC1=O [Example 76] ({Heptanoyl-Aun}-[Orn(4R-OH,5R-OH)]T[Hyp][hTyr(3S-OH,4S-OH)]T[Pro(3S-OH,4S-Me)]; lactam 1-C) |  | 0 ng/mL | 0.625 μg/disc | 20 mm | > 40 mg/kg | > 40 mg/kg |  | 35 mm | 10 mm |  |  |  |  | 
8 | CCCCCCC(=O)Nc1ccc(C(=O)N[C@H]2C[C@@H](O)[C@@H](O)NC(=O)[C@@H]3[C@@H](O)[C@@H](C)CN3C(=O)[C@H]([C@@H](C)O)NC(=O)[C@H]([C@H](O)[C@@H](O)c3ccc(O)cc3)NC(=O)[C@@H]3C[C@@H](O)CN3C(=O)[C@H]([C@@H](C)O)NC2=O)cc1 [Example 78] ({Heptanoyl-4Abz}-[Orn(4R-OH,5R-OH)]T[Hyp][hTyr(3S-OH,4S-OH)]T[Pro(3S-OH,4S-Me)]; lactam 1-C) | 20 mm |  | 1.25 μg/disc |  |  |  |  |  |  | 25 mm | > 40 mg/kg | > 40 mg/kg | 14 mm | 45 mm
9 | CCCCCCCCCC(=O)Nc1ccc(C(=O)N[C@H]2C[C@@H](O)[C@@H](O)NC(=O)[C@@H]3[C@@H](O)[C@@H](C)CN3C(=O)[C@H]([C@@H](C)O)NC(=O)[C@H]([C@H](O)[C@@H](O)c3ccc(O)cc3)NC(=O)[C@@H]3C[C@@H](O)CN3C(=O)[C@H]([C@@H](C)O)NC2=O)cc1 [Example 79] ({Decanoyl-4Abz}-[Orn(4R-OH,5R-OH)]T[Hyp][hTyr(3S-OH,4S-OH)]T[Pro(3S-OH,4S-Me)]; lactam 1-C) | 17 mm |  |  | 30 mm |  |  | 0.625 μg/disc |  | 24 mm |  | 26 mg/kg | 5 mg/kg |  | 
10 | CCCCCCCC(=O)Nc1ccc(C(=O)N[C@H]2C[C@@H](O)[C@@H](O)NC(=O)[C@@H]3[C@@H](O)[C@@H](C)CN3C(=O)[C@H]([C@@H](C)O)NC(=O)[C@H]([C@H](O)[C@@H](O)c3ccc(O)cc3)NC(=O)[C@@H]3C[C@@H](O)CN3C(=O)[C@H]([C@@H](C)O)NC2=O)c(Cl)c1 [Example 86] (Octanoyl-[4Abz(2-Cl)][Orn(4R-OH,5R-OH)]T[Hyp][hTyr(3S-OH,4S-OH)]T[Pro(3S-OH,4S-Me)]; lactam 2-C) |  |  |  |  | 29 mg/kg | 10 mg/kg |  |  |  |  |  |  |  | 
11 | CCCCCCCC(=O)Nc1cc(Cl)cc(C(=O)N[C@H]2C[C@@H](O)[C@@H](O)NC(=O)[C@@H]3[C@@H](O)[C@@H](C)CN3C(=O)[C@H]([C@@H](C)O)NC(=O)[C@H]([C@H](O)[C@@H](O)c3ccc(O)cc3)NC(=O)[C@@H]3C[C@@H](O)CN3C(=O)[C@H]([C@@H](C)O)NC2=O)c1Cl [Example 88] (Octanoyl-[X5][Orn(4R-OH,5R-OH)]T[Hyp][hTyr(3S-OH,4S-OH)]T[Pro(3S-OH,4S-Me)]; lactam 2-C) |  |  |  |  |  |  |  |  |  |  | > 40 mg/kg | 20 mg/kg |  | 
